As a reminder, the IC50 is the concentration needed to halve the response being measured. As a reminder, the half-life is how long it takes for the measured level to halve. Usually AUC(0-t) stands for the area under the concentration-time curve up to a stated or last time point. Read a low AUC(0-t) as less exposure. Usually clearance stands for the rate of elimination divided by the concentration. Higher therefore signals efficient removal. In general, Cmax refers to the maximum level reached in the sampled fluid or tissue. For orientation: bioavailability means the share of a dose that reaches the circulation, judged against a reference dose that is usually intravenous. Read a low bioavailability as little systemic uptake. In general, DC50 refers to the concentration at which degradation of the target reaches its halfway point.

Six compounds from ChEMBL document CHEMBL5365467 (J Med Chem, 2023) can be followed below.

The test system of one series is LNCaP. Put plainly: Growth inhibition in human LNCaP cells assessed as reduction in cell viability.
The test system of series [1] is VCaP. In words: Growth inhibition in human VCaP cells.
A short description of series [2]: Half life in Sprague-Dawley rat at 1 mg/kg, iv measured upto 24 hrs by LC-MS/MS analysis. The format is ADME, organism-based. Particulars: in vivo.
Series [3] is described as follows: AUC (0 to t) in Sprague-Dawley rat at 1 mg/kg, iv measured upto 24 hrs by LC-MS/MS analysis. Type of series: ADME, organism-based. Set-up: dose 1 mg/kg, time < 24 hrs, route iv. Particulars: in vivo.
Series [4] in a line: Volume of distribution at steady state in Sprague-Dawley rat at 1 mg/kg, iv measured upto 24 hrs by LC-MS/MS analysis. Type of series: ADME, organism-based. Particulars: in vivo, read-out: Vdss.
Series [5] can be described thus: Clearance in Sprague-Dawley rat at 1 mg/kg, iv measured upto 24 hrs by LC-MS/MS analysis. Type of series: ADME, organism-based. Particulars: in vivo.
Series [6] is described as follows: Half life in Sprague-Dawley rat at 3 mg/kg, po measured upto 24 hrs by LC-MS/MS analysis. Type of series: ADME, organism-based. Particulars: in vivo.
The nature of series [7]: Cmax in Sprague-Dawley rat at 3 mg/kg, po measured upto 24 hrs by LC-MS/MS analysis. Type of series: ADME, organism-based. Set-up: dose 3 mg/kg, time < 24 hrs, route po. Particulars: in vivo.
Series [8] in a line: AUC (0 to t) in Sprague-Dawley rat at 3 mg/kg, po measured upto 24 hrs by LC-MS/MS analysis. Type of series: ADME, organism-based. On the set-up: dose 3 mg/kg, time < 24 hrs, route po. Particulars: in vivo.
Series [9] can be described thus: Oral bioavailability in Sprague-Dawley rat at 3 mg/kg measured upto 24 hrs by LC-MS/MS analysis. The format is ADME, organism-based. Particulars: in vivo.
Series [10] addresses Protein cereblon/Androgen receptor (Homo sapiens, UniProt P10275+Q96SW2). In words: PROTAC activity at AR/CRBN in AR-positive human VCaP cells assessed as induction of androgen receptor degradation measured at 24 hrs. Type of series: cell-based.
Series [11] has as its system VCaP. Put plainly: Downregulation of PCLAF protein expression in human VCaP cells at 10 uM measured for 24 hrs by proteomics analysis. The format is functional, cell-based.
The subject of series [12] is VCaP. In words: Downregulation of PLOD2 protein expression in human VCaP cells at 10 uM measured for 24 hrs by proteomics analysis. The format is functional, cell-based.
Series [13] deals with VCaP. Put plainly: Downregulation of HAUS8 protein expression in human VCaP cells at 10 uM measured for 24 hrs by proteomics analysis. The format is functional, cell-based.
For a further series, the target named is T1, Androgen receptor (Homo sapiens, UniProt P10275).
T1 sequence (P10275 whole entry): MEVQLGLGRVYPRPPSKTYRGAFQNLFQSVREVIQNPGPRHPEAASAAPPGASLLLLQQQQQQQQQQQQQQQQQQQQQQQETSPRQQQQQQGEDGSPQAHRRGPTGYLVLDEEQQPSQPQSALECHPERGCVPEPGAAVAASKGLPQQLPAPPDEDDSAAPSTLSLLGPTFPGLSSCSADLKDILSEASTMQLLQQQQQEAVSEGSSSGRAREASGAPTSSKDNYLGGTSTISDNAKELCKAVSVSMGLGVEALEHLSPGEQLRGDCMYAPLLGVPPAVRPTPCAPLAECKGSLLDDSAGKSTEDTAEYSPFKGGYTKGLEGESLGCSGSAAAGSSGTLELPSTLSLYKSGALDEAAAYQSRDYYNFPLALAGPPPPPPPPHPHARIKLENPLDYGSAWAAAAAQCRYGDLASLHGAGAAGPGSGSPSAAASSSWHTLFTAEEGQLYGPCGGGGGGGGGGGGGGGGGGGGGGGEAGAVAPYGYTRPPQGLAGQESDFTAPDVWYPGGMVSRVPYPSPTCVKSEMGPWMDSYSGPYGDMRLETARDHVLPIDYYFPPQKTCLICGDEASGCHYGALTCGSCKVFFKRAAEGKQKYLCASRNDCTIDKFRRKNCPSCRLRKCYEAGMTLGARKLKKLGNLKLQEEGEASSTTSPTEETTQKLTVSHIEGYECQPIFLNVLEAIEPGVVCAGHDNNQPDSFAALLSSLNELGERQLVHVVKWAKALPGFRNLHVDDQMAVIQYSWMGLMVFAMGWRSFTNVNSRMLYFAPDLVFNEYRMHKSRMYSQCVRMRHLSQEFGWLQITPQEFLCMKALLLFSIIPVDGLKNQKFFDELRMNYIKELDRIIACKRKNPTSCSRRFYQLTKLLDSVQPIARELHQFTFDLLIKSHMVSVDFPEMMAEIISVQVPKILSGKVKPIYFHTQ

The subject of series [14] is VCaP. In words: Antitumor activity against human VCaP cells xenografted in CB17-SCID mouse assessed as tumor growth inhibition at 10 mg/kg, po administered for 21 days. Type of series: functional. Particulars: 504 h, time 21 day, read-out: TGI.
For series [15], the target named is Protein cereblon/Androgen receptor (Homo sapiens, UniProt P10275+Q96SW2, T878A). In words: PROTAC activity at AR T878A mutant/CRBN in human LNCaP cells assessed as induction of androgen receptor degradation measured at 24 hrs by Western blot analysis. Type of series: cell-based.
Series [16] is described as follows: Half life in Sprague-Dawley rat at 5 mg/kg, po measured upto 24 hrs by LC-MS/MS analysis. Particulars: in vivo.

The structures appear in SMILES notation. Activity calls are given as the source filed them. No cut-off for these calls is given here.

Sequence of Protein cereblon/Androgen receptor (Homo sapiens, UniProt P10275+Q96SW2) (Q96SW2 whole entry, one chain of several): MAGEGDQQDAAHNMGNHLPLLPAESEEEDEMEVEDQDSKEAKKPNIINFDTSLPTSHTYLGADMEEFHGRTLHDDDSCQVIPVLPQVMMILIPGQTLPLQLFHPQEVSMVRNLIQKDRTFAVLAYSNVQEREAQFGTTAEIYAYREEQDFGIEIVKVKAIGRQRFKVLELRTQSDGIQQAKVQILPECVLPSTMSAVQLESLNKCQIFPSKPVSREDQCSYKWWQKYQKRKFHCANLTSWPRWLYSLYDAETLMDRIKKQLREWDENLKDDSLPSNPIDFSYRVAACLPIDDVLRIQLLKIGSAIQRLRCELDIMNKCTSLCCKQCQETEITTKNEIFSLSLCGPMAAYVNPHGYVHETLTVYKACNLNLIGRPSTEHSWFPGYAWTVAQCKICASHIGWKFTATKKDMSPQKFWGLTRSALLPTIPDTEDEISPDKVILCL

Regarding `CNC(=O)c1ccc(N2C(=S)N(c3ccc(C#N)c(C(F)(F)F)c3)C(=O)C2(C)C)cc1F` [ENZALUTAMIDE], in the series on LNCaP, the IC50 is 213 nM.
Compound `C[C@H]1CC2(CCN(c3cnc(C(=O)N4CCC(CN5Cc6cc7c(cc6C5)C(=O)N(C5CCC(=O)NC5=O)C7=O)CC4)cn3)CC2)CN1c1ccc(C#N)c(Cl)c1` (stereo not given in full) returned a 50% inhibitory concentration (IC50) in the series with VCaP [1] of 10 nM. The half-life in series [2] was 1.4 h; in [6] it was 1.2 h. The AUC(0-t) at 24 h in series [3] was found to be 495 ng·h/mL; in series [8] it was 235 ng·h/mL. In series [4], the Vd turned out to be 2.3 L/kg. For the same compound, the clearance in series [5] is 33.3 mL/min/kg. In [7], this compound came in with a Cmax of 55 ng/mL. Moreover, in [9], the bioavailability came out at 15%.
Take `C[C@H]1CC2(CCN(c3ccc(C(=O)N4CCN(C)CC4)cc3)CC2)CN1c1ccc(C#N)c(Cl)c1`: in series [10], the DC50 result was “Not Active”. The result in the series on VCaP [11], in the series with VCaP [12] and in the series on VCaP [13] was inactive.
`CN(c1ccc(C#N)c(Cl)c1)[C@H]1CC[C@H](NC(=O)c2ccc(N3CCN(C4CN(c5ccc6c(c5)C(=O)N(C5CCC(=O)NC5=O)C6=O)C4)CC3)cc2)CC1` (stereo not given in full): at Androgen receptor, inhibition was half-maximal at 15 nM (IC50). For the same compound, the half-life was 5.5 h in series [2] and 6.9 h in series [6]. Also, the AUC(0-t) at 24 h in [3] stood at 1300 ng·h/mL; in [8] it was 535 ng·h/mL. The Vd in series [4] is 5.3 L/kg. Besides, in [5], the clearance is 12.5 mL/min/kg. This compound also came in with a Cmax in [7] of 57 ng/mL. The same compound yielded a bioavailability in series [9] of 13%.
With `N#Cc1ccc(O[C@H]2CC[C@H](NC(=O)c3ccc(N4CCC(CN5CCN(c6cc7c(cc6F)C(=O)N(C6CCC(=O)NC6=O)C7=O)CC5)CC4)nn3)CC2)cc1Cl` (stereo not given in full) [BAVDEGALUTAMIDE], the inhibition in vivo at 10 mg/kg in the series on VCaP [14] is 47%. Moreover, the IC50 in the series with VCaP [1] worked out at 16.2 nM; in the series with LNCaP it was 18.5 nM. The half-life in series [2] is 12 h; in [6] it was 27.1 h. For the same compound, the AUC(0-t) at 24 h in series [3] was 2270 ng·h/mL; in series [8], 3600 ng·h/mL. Further, the Vd in [4] stood at 4.6 L/kg. The compound further had a clearance in [5] of 6 mL/min/kg. The compound also came in with a Cmax in [7] of 280 ng/mL. The compound further yielded a bioavailability in [9] of 52%.
Consider `C[C@H]1CC2(CCN(c3ccc(C(=O)N4CCC(CN5Cc6cc7c(cc6C5)C(=O)N(C5CCC(=O)NC5=O)C7=O)CC4)nn3)CC2)CN1c1ccc(C#N)c(Cl)c1` (stereo not given in full), for which the DC50 in series [10] (read-out: DC50) was determined as 2.7 nM; in series [15] it was 0.5 nM. The IC50 in the series on VCaP [1] worked out at 20 nM. In series [2], this compound gave a half-life of 2 h. The values for the area under the curve AUC(0-t) at 24 h in series [3] and in [8] were 1010 ng·h/mL and 1100 ng·h/mL, respectively. The Vd in series [4] turned out to be 2.2 L/kg. Besides, the clearance in [5] is 32.3 mL/min/kg. In [16], the half-life at 24 h was 1.4 h. The compound further returned a Cmax in series [7] of 247 ng/mL. In series [9], this compound gave a bioavailability of 36%.
